Measured values as given in patent US11530181B2, “IL-6 inhibitors and methods of treatment” (University of Florida Research Foundation, Incorporated, priority 2018, dated 2022).

Legend:
STAT4 phosphorylation = assay: Western blot, STAT4 phosphorylation in MCF7; format: cell-based, human; conditions: MCF7, pre-treatment 2, 3 and 4 hours
Experimental: FIG. 13. depicts the reduced effect on STAT1, STAT2, STAT4 and STAT6 phosphorylation by LLM418. The MCF7 cells were serum-starved overnight, then treated with LLM4 (15 μM) for 2, 3 and 4 hours. STAT1, STAT2, STAT4 and STAT6 phosphorylation were induced by INF-γ, INF-α and IL-4, respectively. The cells were harvested at 30 minutes and analyzed by western blot assays.
(§1) Cells were harvested and lysed in cold radioimmunoprecipitation assay (RIPA) lysis buffer containing proteasome inhibitor cocktail and phosphatase inhibitor cocktail. The protein concentrations were determined using the BCA Protein Assay kit. After adding the loading buffer and boiling at 95° C. for 10 minutes, equivalent amounts of proteins were loaded on and separated by SDS-PAGE, and then were transferred to PVDF membranes. Membranes were probed with primary antibodies (1:1000) against phospho-STAT3 (Tyr705), STAT3, phospho-STAT1 (Tyr701), STAT1, phospho-STAT6 (Tyr 641), STAT6, and GAPDH, respectively, and horseradish peroxidase (HRP)-conjugated secondary antibody (1:10000) (Cell Signaling Technology, Beverly, Mass.). Membranes were analyzed using Enhanced Chemiluminescence Plus reagents and either scanned with the Storm Scanner (Amersham Pharmacia Biotech, Inc., Piscataway, N.J.) or imaged with ChemiDoc MP imaging system (Bio-Rad, Hercules, Calif.). […] The cells were harvested after 30 minutes and analyzed by Western blot.

[1] = system: STAT3 phosphorylation in BxPC-3 cells; assay: Western blot, STAT3 phosphorylation in BxPC-3 (IL-6 autocrine); format: cell-based, human
Experimental: as §1, with “Calif.). For cytokine induction of STAT3 phosphorylation, MCF-7 breast cancer cells were seeded in 10 cm plates (1 million cells per plate) and allowed to adhere overnight followed by serum-starvation.” for “Calif.).”
BxPC-3 and SUM159 cells were seeded in 10 cm plates (1 million cells per plate) and allowed to adhere overnight. […] Then cells were harvested and analyzed by western blotting.

| SMILES | effect on STAT4 phosphorylation (STAT4 phosphorylation) | inhibition of STAT3 phosphorylation ([1]; BxPC-3, 20 μM) | inhibition of STAT3 phosphorylation ([1]; BxPC-3, 5-20 μM, 16 h) |
| --- | --- | --- | --- |
| O=C(Nc1ccccc1-c1ccn[nH]1)c1ccc(OCCN2CCCCC2)cc1 [LLM418, N-(2-(1H-pyrazol-5-yl)phenyl)-4-(2-(piperidin-1-yl)ethoxy)benzamide] | little effect | – | – |
| O=C(Nc1cc(F)ccc1-n1cccc1)c1ccc(OCCCN2CCCCC2)cc1 [LLM4, N-(5-fluoro-2-(1H-pyrrol-1-yl)phenyl)-4-(3-(piperidin-1-yl)propoxy)benzamide] | – | almost complete inhibition | inhibited STAT3 phosphorylation in BxPC-3 cells in a dose dependent manner |
